Reference: publication PMC5129982, “Screen-identified selective inhibitor of lysine demethylase 5A blocks cancer cell growth and drug resistance” (Oncotarget, 2016)
pIC50: −log10 of the molar value. Where two headings read alike, the source gives them in different places. One block for each molecule: values may come before it.

What was measured:
FLAG-KDM5A = target: T1, FLAG-KDM5A (Homo sapiens, UniProt P29375); experiment: AlphaScreen screen of 8,861 compounds for KDM5A inhibitors; assay type: biochemical; settings: 20 μM compound, threshold ~30% inhibition
T1 construct: Sf21 insect cells were infected with baculovirus to express full-length FLAG-KDM5A; made in house; host or cells: Sf21 insect cells (baculovirus)
T1 sequence (P29375 whole entry): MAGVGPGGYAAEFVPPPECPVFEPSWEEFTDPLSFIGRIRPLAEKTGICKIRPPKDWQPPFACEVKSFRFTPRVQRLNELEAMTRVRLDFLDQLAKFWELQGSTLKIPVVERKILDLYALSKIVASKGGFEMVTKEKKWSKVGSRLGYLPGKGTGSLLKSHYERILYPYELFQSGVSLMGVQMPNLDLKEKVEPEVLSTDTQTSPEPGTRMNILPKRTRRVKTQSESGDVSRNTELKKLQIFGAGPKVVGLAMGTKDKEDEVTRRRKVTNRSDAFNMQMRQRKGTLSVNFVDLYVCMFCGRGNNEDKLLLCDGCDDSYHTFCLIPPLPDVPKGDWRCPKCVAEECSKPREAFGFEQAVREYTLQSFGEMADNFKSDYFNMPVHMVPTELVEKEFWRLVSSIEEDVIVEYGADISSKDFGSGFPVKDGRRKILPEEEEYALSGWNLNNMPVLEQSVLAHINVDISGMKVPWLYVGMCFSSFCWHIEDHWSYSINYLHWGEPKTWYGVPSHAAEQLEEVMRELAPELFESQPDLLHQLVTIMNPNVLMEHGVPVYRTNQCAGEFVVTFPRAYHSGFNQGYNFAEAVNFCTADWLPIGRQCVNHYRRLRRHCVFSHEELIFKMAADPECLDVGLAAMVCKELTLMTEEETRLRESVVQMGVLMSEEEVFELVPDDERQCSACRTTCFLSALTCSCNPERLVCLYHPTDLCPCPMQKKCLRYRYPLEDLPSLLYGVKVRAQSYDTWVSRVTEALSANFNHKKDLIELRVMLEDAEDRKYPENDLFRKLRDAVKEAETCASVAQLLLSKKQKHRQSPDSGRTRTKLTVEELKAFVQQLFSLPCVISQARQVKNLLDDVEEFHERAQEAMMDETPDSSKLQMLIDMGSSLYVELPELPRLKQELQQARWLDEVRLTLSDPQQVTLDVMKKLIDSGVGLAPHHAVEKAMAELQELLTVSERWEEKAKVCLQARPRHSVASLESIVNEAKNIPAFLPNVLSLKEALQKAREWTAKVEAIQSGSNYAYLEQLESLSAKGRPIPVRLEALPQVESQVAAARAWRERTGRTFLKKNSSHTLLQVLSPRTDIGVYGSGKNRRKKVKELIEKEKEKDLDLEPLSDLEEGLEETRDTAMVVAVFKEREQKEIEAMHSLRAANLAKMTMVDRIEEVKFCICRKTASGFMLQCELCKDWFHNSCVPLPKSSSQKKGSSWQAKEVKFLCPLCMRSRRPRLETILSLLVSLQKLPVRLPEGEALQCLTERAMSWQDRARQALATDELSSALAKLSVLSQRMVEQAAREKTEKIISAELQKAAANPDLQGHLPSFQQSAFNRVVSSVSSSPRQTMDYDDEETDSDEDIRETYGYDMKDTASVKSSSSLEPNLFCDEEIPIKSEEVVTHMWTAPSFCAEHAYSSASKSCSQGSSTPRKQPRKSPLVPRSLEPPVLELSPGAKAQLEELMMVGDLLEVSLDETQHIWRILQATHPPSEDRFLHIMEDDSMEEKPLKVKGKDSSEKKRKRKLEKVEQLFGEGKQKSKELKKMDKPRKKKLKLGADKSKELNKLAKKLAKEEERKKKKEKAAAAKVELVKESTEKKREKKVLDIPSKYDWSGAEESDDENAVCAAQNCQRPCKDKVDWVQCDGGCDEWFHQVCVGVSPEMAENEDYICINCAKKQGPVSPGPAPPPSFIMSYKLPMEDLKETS
Description: The screen (see schematic in Figure 2A) included 8,861 compounds from selected small molecule libraries, including drugs approved for use in the clinic and diverse collections of compounds representing broad pharmacophore diversity and bioavailability. […] An inhibition threshold of three standard deviations (about 30% inhibition) identified 257 compounds. A counter-screen was used to eliminate any compounds that interfered with the assay itself by detecting the luminescent signal in the presence of the compound and positive control H3K4me2 peptide. The counter-screen validated 170 compounds. We chose 48 compounds from this list for dose-response analysis, including 42 of the top 44 compounds with the highest potency at 20 μM and 6 compounds with drug-like structures.
8,861 compounds from the ChemBridge MW-Set, ChemBridge DIVERSet, MicroSource Gen-Plus, MicroSource Pure Natural Products, NIH Clinical Collection, and Enzo Epigenetics libraries were screened for inhibition of FLAG-KDM5A demethylase activity. Compounds were dissolved in DMSO and added at 20 μM to 384-well white plates (Corning 3574) containing 64 nM bio-H3K4me3 peptide in demethylase buffer prior to addition of 13 nM FLAG-KDM5A. Hits were selected at a threshold of three standard deviations (~30% inhibition). A counter-screen was performed with the hits to eliminate any non-specific compounds. For this, 20 μM compounds were added to 64 nM bio-H3K4me2 peptide in demethylase buffer with no enzyme. Any hits that interfered with the positive signal detection were eliminated. Dose-response curves were performed on selected hits using 0.1–11 μM of compound. Further validation of top hits was performed using 5 μM of each compound or a dose-response curve using 0.05–50 μM of the compound.

full-length FLAG-KDM5A = target: T2, full-length FLAG-KDM5A (Homo sapiens, UniProt P29375); experiment: AlphaScreen KDM5A demethylation assay; assay type: biochemical; settings: for Km: cofactor of KDM5A demethylation, 24 nM FLAG-KDM5A, read-out: average apparent Km
T2 construct: Sf21 insect cells were infected with baculovirus to express full-length FLAG-KDM5A; made in house; host or cells: Sf21 insect cells (baculovirus)
T2 sequence (P29375 whole entry): as above
Description: AlphaScreen technology (PerkinElmer) was utilized to perform a screen for small molecule inhibitors of KDM5A. The assay was comprised of two steps, a demethylation reaction followed by detection of the product. A biotinylated H3K4me3 peptide was used as substrate in the demethylation reaction with KDM5A in the presence or absence of small molecule inhibitors. The presence of peptide product (H3K4me1/2) was detected using a product-specific antibody and beads. For this, acceptor beads coated in protein A bound to the antibody, which recognized the peptide product. Donor beads coated in streptavidin bound biotin on the peptide substrate. If the demethylation reaction occurred, the beads were in very close proximity and laser excitation of the donor beads at 680nm caused a transfer of energy in the form of reactive singlet oxygen, resulting in emission by the acceptor beads between 520–620 nm ([30, 31], Figure 1A). The luminescent signal detected was a proxy for the amount of demethylation that occurred.
Reactions were carried out for 1 hour, or were stopped by addition of 30 mM EDTA every 5 minutes for determining enzyme kinetics. Km values were calculated using the Michaelis-Menten non-linear regression analysis on GraphPad Prism 6.0 software. The concentration of DMSO in demethylation reactions was 0.05%. For reactions with catalase, catalase (Sigma C30) or an equal volume of dilution buffer was added to the peptide-containing buffer before addition of the demethylase. The final concentration of catalase in the reactions was 0.01 mg/ml.
(§1) The AlphaScreen general IgG (protein A) detection kit from PerkinElmer Life Sciences was used as described previously. The luminescence emission was recorded at 570 nm using the AlphaScreen optic module on a Pherastar (BMG Labtech) or Envision (PerkinElmer Life Sciences) microplate reader.
IC50 values were calculated by log transformation and non-linear regression log(inhibitor) versus response(three parameters) using Graphpad Prism 6.0 software.

His-FLAG-KDM6A (UTX) = target: T3, His-FLAG-KDM6A (UTX) (Homo sapiens, UniProt O15550); experiment: AlphaScreen KDM6A demethylation assay; assay type: biochemical
T3 construct: Full-length FLAG-KDM5B, FLAG-KDM5C, and His-FLAG-KDM6A production was detailed previously; His (N); FLAG (N); made in house
Method: (§2) Histone demethylase assays were performed as described previously, with the exception of all enzyme reactions containing 125 μM α-KG. Enzymes were used at the following approximate concentrations in validation experiments, chosen based on their activity in AlphaScreen assays: 19 nM FLAG-KDM5A, 15 nM FLAG-KDM5B, 6 nM FLAG-KDM5C, 29 nM His-FLAG-KDM6A, and 16 nM FLAG-KDM6B. 24 nM FLAG-KDM5A was used for Km determination experiments. Reactions were carried out for 1 hour, or were stopped by addition of 30 mM EDTA every 5 minutes for determining enzyme kinetics. Km values were calculated using the Michaelis-Menten non-linear regression analysis on GraphPad Prism 6.0 software. The concentration of DMSO in demethylation reactions was 0.05%. For reactions with catalase, catalase (Sigma C30) or an equal volume of dilution buffer was added to the peptide-containing buffer before addition of the demethylase. The final concentration of catalase in the reactions was 0.01 mg/ml.
as §1

[1] = system: H3K4 methylation in MCF7 cells; experiment: Western blot of global H3K4 methylation, MCF7; assay type: cell-based, human; settings: 48 hr
Method: (§3) Cells were lysed as described previously. Histones were separated by centrifugation, resuspended in Laemmeli buffer, and sonicated. Protein concentration of cell lysates was measured by Bradford assay. Samples in Laemmeli buffer were boiled 10 minutes at 95°C and loaded onto 7% (whole cell lysates) or 18% (histones) SDS-PAGE gels. Membranes were blocked in 4% non-fat milk in Tris-buffered saline with 0.05% Tween (TBS-T) and incubated with primary antibodies in the same buffer or 5% bovine serum albumin in TBS-T overnight at 4°C. Membranes were incubated with secondary anti-rabbit or anti-mouse antibodies for one hour at room temperature. Blots were visualized by Thermo Scientific Pierce ECL Western Blotting Substrate (32106) or EMD Millipore Immobilon Western Chemiluminescent HRP Substrate (WBKLS0100) on film. Signal was quantified using ImageJ software.

FLAG-KDM5C = target: T4, FLAG-KDM5C (Homo sapiens, UniProt P41229); experiment: AlphaScreen KDM5C demethylation assay; assay type: biochemical
T4 construct: Full-length FLAG-KDM5B, FLAG-KDM5C, and His-FLAG-KDM6A production was detailed previously; FLAG (N); made in house
T4 sequence (P41229 whole entry): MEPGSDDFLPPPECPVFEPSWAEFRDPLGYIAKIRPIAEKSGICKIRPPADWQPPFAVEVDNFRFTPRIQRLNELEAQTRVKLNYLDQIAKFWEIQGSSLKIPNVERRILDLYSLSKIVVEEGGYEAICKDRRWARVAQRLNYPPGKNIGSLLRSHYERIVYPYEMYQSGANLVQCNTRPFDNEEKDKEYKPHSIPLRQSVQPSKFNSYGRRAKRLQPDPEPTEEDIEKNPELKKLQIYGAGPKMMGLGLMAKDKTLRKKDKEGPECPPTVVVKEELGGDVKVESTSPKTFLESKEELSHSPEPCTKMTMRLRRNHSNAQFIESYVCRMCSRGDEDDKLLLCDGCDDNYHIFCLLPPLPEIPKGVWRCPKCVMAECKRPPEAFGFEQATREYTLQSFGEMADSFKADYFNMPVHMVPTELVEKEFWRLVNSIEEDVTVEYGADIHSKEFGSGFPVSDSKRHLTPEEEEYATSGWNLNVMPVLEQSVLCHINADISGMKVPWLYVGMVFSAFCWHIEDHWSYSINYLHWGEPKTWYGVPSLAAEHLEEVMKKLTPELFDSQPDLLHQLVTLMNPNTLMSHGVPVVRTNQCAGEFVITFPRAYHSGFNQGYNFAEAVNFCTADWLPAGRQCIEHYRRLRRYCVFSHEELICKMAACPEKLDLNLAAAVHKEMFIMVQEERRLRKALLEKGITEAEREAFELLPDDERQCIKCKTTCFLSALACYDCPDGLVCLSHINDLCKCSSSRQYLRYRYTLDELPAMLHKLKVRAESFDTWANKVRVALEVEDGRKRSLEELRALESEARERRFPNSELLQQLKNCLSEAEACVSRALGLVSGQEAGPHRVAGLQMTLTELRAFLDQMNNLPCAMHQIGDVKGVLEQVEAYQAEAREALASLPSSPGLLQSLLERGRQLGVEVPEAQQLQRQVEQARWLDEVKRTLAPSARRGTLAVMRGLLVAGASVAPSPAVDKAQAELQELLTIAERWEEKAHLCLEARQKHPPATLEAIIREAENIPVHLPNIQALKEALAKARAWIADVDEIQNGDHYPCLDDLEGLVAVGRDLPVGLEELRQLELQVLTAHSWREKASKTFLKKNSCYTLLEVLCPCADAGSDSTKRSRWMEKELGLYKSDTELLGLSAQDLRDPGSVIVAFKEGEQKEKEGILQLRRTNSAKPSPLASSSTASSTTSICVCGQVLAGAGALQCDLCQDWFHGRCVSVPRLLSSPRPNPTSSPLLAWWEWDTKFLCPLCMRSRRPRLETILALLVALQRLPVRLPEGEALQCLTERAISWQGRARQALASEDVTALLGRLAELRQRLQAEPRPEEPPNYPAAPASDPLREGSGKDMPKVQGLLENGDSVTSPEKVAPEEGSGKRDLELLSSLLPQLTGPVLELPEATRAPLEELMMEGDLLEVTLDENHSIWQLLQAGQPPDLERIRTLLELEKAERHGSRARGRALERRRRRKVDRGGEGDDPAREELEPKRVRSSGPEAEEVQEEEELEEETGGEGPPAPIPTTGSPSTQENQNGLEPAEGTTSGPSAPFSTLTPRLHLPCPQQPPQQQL
Method: as §2, §1

[2] = target: T5, FLAG-KDM6B (1043-1682) (JMJD3) (Homo sapiens, UniProt O15054); experiment: AlphaScreen KDM6B demethylation assay; assay type: biochemical
T5 construct: FLAG-KDM6B (1043-1682) was purchased from BPS Bioscience (50115); FLAG (N); purchased BPS Bioscience 50115
Method: as §2, §1

FLAG-KDM5B = target: T6, FLAG-KDM5B (Homo sapiens, UniProt Q9UGL1); experiment: AlphaScreen KDM5B demethylation assay; assay type: biochemical
T6 construct: Full-length FLAG-KDM5B, FLAG-KDM5C, and His-FLAG-KDM6A production was detailed previously; FLAG (N); made in house
T6 sequence (Q9UGL1 whole entry): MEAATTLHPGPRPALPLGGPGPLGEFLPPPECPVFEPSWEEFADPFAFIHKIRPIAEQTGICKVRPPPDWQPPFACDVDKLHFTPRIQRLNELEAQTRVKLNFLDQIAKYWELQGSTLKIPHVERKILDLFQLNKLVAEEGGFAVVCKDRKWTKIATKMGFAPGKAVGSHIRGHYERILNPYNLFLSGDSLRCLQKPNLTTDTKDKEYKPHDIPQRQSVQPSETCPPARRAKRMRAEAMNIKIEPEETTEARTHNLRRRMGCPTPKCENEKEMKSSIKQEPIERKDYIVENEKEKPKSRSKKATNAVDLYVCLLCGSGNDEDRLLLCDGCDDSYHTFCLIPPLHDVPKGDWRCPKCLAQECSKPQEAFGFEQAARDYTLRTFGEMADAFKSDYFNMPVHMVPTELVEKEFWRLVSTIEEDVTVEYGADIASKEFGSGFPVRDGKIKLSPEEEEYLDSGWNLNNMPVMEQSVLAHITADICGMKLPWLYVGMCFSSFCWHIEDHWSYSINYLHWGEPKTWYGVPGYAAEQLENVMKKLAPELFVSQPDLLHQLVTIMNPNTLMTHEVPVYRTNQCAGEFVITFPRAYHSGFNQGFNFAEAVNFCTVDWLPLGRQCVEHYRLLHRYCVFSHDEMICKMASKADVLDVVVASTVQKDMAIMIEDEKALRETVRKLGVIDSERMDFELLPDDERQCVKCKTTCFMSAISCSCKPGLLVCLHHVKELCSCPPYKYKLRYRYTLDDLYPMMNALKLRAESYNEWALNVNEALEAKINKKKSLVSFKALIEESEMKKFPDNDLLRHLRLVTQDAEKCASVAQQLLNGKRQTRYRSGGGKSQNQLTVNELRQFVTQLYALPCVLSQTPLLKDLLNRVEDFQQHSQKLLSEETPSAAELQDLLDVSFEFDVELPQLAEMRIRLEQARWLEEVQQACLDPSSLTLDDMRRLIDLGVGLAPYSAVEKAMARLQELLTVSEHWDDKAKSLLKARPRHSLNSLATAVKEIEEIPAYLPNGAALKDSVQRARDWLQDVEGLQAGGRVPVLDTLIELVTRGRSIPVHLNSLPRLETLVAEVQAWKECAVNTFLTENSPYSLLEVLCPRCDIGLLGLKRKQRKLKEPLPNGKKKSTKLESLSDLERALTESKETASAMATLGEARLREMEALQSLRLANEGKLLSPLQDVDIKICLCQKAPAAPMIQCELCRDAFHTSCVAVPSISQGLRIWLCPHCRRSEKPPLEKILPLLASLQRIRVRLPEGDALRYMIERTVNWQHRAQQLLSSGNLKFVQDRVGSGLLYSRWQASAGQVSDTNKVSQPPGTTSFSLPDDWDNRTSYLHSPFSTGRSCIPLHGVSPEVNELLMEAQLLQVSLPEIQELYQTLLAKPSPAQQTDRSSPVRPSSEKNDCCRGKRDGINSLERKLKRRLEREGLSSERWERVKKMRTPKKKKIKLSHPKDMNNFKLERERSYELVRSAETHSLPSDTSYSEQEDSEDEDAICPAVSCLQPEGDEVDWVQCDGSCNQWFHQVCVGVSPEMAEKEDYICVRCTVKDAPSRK
Method: as §2, §1

[3] = system: H3K4 methylation in HeLa cells; experiment: Western blot of global H3K4 methylation, HeLa; assay type: cell-based, human; settings: HeLa, 48 hr
Method: as §3

[4] = target: FLAG-tagged full-length KDM5A (lysine demethylase 5A) (UniProt P29375)
FLAG-tagged full-length KDM5A (lysine demethylase 5A), sequence (P29375 whole entry): as the sequence (P29375 whole entry) above

Molecule: [Fe+2] [Fe(II)]
Km (full-length FLAG-KDM5A): ~3 µM

Molecule: C=CCn1c(S)nnc1CNC(=O)c1cccc(C)c1 [YUKA2, N-[(4-allyl-5-mercapto-4H-1,2,4-triazol-3-yl)methyl]-3-methylbenzamide]
pIC50 (His-FLAG-KDM6A (UTX)): < 4.30
H3K4me3 Fold (H3K4me3/Total H3, normalized to DMSO) ([1]; MCF7, 50 μM): 0.9
H3K4me3 Fold (H3K4me3/Total H3, normalized to DMSO) ([1]; MCF7, 100 μM): 0.8
fold less active against KDM5C (than KDM5A) (FLAG-KDM5C): ~5 fold
pIC50 (FLAG-KDM5C; AlphaScreen): 5.18
pIC50 [2]: < 4.30
pIC50 (FLAG-KDM5B; AlphaScreen): < 4.30
activity against KDM5B (FLAG-KDM5B; at 50 μM): no activity
mode of inhibition with respect to Fe(II) (full-length FLAG-KDM5A): uncompetitive with respect to Fe(II)
change of IC50 over a 16-fold range of α-KG concentrations (full-length FLAG-KDM5A; 150 nM H3K4me3 peptide, 50 μM Fe(II)): did not change significantly
enzyme inhibition at low Fe(II) (full-length FLAG-KDM5A; 5 μM Fe(II)): too weak to generate robust IC50 curves
effect of catalase on inhibitory potency against KDM5A (full-length FLAG-KDM5A; 0.01 mg/ml catalase): did not affect
pIC50 (full-length FLAG-KDM5A; AlphaScreen, 1 hour reaction, 0.05–50 μM compound): 5.88
H3K4me3 Fold (H3K4me3/Total H3, normalized to DMSO) ([3]; 50 μM): 1.6
H3K4me3 Fold (H3K4me3/Total H3, normalized to DMSO) ([3]; 100 μM): 1.7

Molecule: O=C(O)c1ccnc(C(=O)O)c1 [2,4-PDCA, 2,4-pyridinedicarboxylic acid]
outcome in the KDM5A inhibitor screen (FLAG-KDM5A): active hits

Molecule: [Cl-].[Na+] [NaCl, sodium chloride]
concentration above which FLAG-KDM5A showed little activity (full-length FLAG-KDM5A; salt titration in the demethylation reaction): more than 50 mM

Molecule: [Cl-].[Cl-].[Zn+2] [ZnCl2, Zinc chloride]
concentration above which FLAG-KDM5A was sensitive (full-length FLAG-KDM5A; titration in the demethylation reaction): above 2 μM

Molecule: biotinylated H3K4me3 peptide
average apparent Km of the H3K4me3 peptide: rate of the demethylation reaction over increasing peptide concentrations, product detected by AlphaScreen (24 nM FLAG-KDM5A) [4]: 0.028 µM

Molecule: O=C(O)CCC(=O)C(=O)O [α-ketoglutarate]
Km (full-length FLAG-KDM5A; listed as α-KG): ~7 µM

Molecule: Cc1ccc(-n2sc3ccccc3c2=O)cc1 [PBIT, 2-4(4-methylphenyl)-1,2-benzisothiazol-3(2H)-one]
outcome in the KDM5A inhibitor screen (FLAG-KDM5A): active hits

The remaining lines, values ahead:

outcome in the KDM5A inhibitor screen (FLAG-KDM5A): active hits
Molecule: N[C@@H](Cc1ccc(O)c(O)c1)C(=O)O [levodopa]

outcome in the KDM5A inhibitor screen (FLAG-KDM5A): active hits
Molecule: C[C@](N)(Cc1ccc(O)c(O)c1)C(=O)O [methyldopa]

outcome in the KDM5A inhibitor screen (FLAG-KDM5A): active hits
Molecule: O=C(O)/C=C/c1ccc(O)c(O)c1 [caffeic acid]

outcome in the KDM5A inhibitor screen (FLAG-KDM5A): active hits
Molecule: C[C@@](Cc1ccc(O)c(O)c1)(NN)C(=O)O [carbidopa]
